Laboratory results from patent publication US20080214606A1, “Methods for the Identification and Use of Compounds Suitable for the Treatment of Drug Resistant Cancer Cells” (The Government of the United States of America as …, priority 2004, published 2008).
“Also recorded” adds a separate entry of the source. Where two headings read alike, the source gives them in different places.

Legend:
[1] = target: T1, ABCC5 (Homo sapiens, UniProt O15440); assay: Correlation of ABCC5 expression with drug sensitivity across the NCI-60; assay type: cell-based; settings: Pearson correlation of ABCC5 expression with sensitivity of the 60 cell lines; 1429 compounds; inverse, p < 0.0001
T1 construct: profiled in 60 diverse cancer cell lines (the NCI-60) using real-time RT-PCR; endogenous in cells; host or cells: NCI-60 human cancer cell lines
Protocol: (§1) Expression levels are measured by real-time quantitative RT-PCR using the LightCycler RNA Amplification SYBR Green kit and a LightCycler machine (Roche Biochemicals, Indianapolis, Ind.). […] When possible, the amplicons are designed to encompass exon-intron boundaries to avoid amplification of genomic DNA. Since the Syber Green assay detects accumulation of double stranded DNA, primers are selected (from a battery consisting of about 200 primers) that amplified a single product of the correct size.
(§2) RT-PCR is carried out on 150 ng total RNA, in the presence of 250 nM specific primers. Following reverse transcription (20 min at 50° C.), the PCR reaction consists of 45 cycles of denaturation (15 sec at 95° C.), annealing (30 sec at 58° C.), and elongation (30 sec at 72° C.). No-template (water) reaction mixtures are prepared as negative controls.
(§3) During PCR amplification, fluorescence emission is measured and recorded in real time by the LightCycler. Crossing point values are calculated, using the LightCycler software package, by the Fit Points analysis method, with baseline fluorescence set at 1. The SyberGreen assay measures accumulation of double-stranded products, and the appearance of primer dimers limits quantitation at high cycle numbers. The specificity of amplified products is verified by melting-curve analysis and agarose gel electrophoresis (not shown). The raw results are expressed as number of cycles to reach the crossing point. If the desired product is not detected, the corresponding value is adjusted to crossing points indicating no expression. To assess the contribution of experimental artifacts, selected cell lines are assessed in replicate.
(§4) The two are combined to form a joint dataset that includes 1429 compounds.
(§5) In the Benjamini-Hochberg procedure the p-values are computed in the standard way by permutation, assuming that all distributions are exchangeable: the number of values in the permuted data with correlations over a threshold, divided by the number of compounds and by the number of permutations. In this analysis, the False Discovery Rate (q-value) at which each compound would be declared was calculated using the step-up procedure for positively correlated test statistics (again true because all correlations being compared are computed against the same ABC gene): in this procedure the first q-value for the largest correlation is the Bonferroni-corrected p-value for that gene; then further q-values are calculated as qj=max(pj*1429/j, qj-1). This procedure limits the expected proportion of false positives in the list 1, . . . , j to at most qj.

[2] = target: T2, ABCB6 (Homo sapiens, UniProt Q9NP58); assay: Correlation of ABCB6 expression with drug sensitivity across the NCI-60; assay type: cell-based; settings: Pearson correlation of ABCB6 expression with sensitivity of the 60 cell lines; 1429 compounds; inverse, p < 0.0001
T2 construct: profiled in 60 diverse cancer cell lines (the NCI-60) using real-time RT-PCR; endogenous in cells; host or cells: NCI-60 human cancer cell lines
Protocol: (§6) Expression levels are measured by real-time quantitative RT-PCR using the LightCycler RNA Amplification SYBR Green kit and a LightCycler machine (Roche Biochemicals, Indianapolis, Ind.). Specific oligonucleotide probes are designed for each of the ABC transporters using DNAStar Primer Select (DNASTAR Inc.), and they may be synthesized at Lofstrand Laboratories (Gaithersburg, Md.). When possible, the amplicons are designed to encompass exon-intron boundaries to avoid amplification of genomic DNA. Since the Syber Green assay detects accumulation of double stranded DNA, primers are selected (from a battery consisting of about 200 primers) that amplified a single product of the correct size. […]
(§7) During PCR amplification, fluorescence emission is measured and recorded in real time by the LightCycler. Crossing point values are calculated, using the LightCycler software package, by the Fit Points analysis method, with baseline fluorescence set at 1. The SyberGreen assay measures accumulation of double-stranded products, and the appearance of primer dimers limits quantitation at high cycle numbers. […] The raw results are expressed as number of cycles to reach the crossing point. If the desired product is not detected, the corresponding value is adjusted to crossing points indicating no expression. To assess the contribution of experimental artifacts, selected cell lines are assessed in replicate. […]

[3] = target: ABCB1 (Homo sapiens, UniProt P08183); assay: Correlation of ABCB1 expression with drug sensitivity across the NCI-60
Outline: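 SYBR Green real-time RT-PCR on 150 ng total RNA with 250 nM primers: RT 20 min at 50 °C, then 45 cycles; expression taken as crossing-point cycle number. Correlated with drug sensitivity of 1429 compounds across the cell panel; permutation p-values with step-down and step-up (FDR q-value) multiple-testing correction.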

[4] = target: MDR1 (Homo sapiens, UniProt P08183); settings: cited from earlier work; for Interaction with MDR1: tested in various laboratories
[5] = target: T3, ABCA1 (Homo sapiens, UniProt O95477); assay: Correlation of ABCA1 expression with drug sensitivity across the NCI-60; assay type: cell-based; settings: Pearson correlation of ABCA1 expression with sensitivity of the 60 cell lines; 1429 compounds; inverse, p < 0.0001
T3 construct: profiled in 60 diverse cancer cell lines (the NCI-60) using real-time RT-PCR; endogenous in cells; host or cells: NCI-60 human cancer cell lines
Protocol: as §1, §2, §3, §4, §5

[6] = target: T4, ABCA9 (Homo sapiens, UniProt Q8IUA7); assay: Correlation of ABCA9 expression with drug sensitivity across the NCI-60; assay type: cell-based; settings: Pearson correlation of ABCA9 expression with sensitivity of the 60 cell lines; 1429 compounds; inverse, p < 0.0001
T4 construct: profiled in 60 diverse cancer cell lines (the NCI-60) using real-time RT-PCR; endogenous in cells; host or cells: NCI-60 human cancer cell lines
Protocol: as §6, §7

[7] = system: MDR1-overexpressing KB-V1 cells; assay: Efflux assay (accumulation of fluorescent NSC 634791, flow cytometry); assay type: cell-based, human
Protocol: The dashed lines indicate the same experiment performed in the presence of 2 μM of the ABCB1 inhibitor, PSC 833 (for KB-3-1, the solid and dashed lines overlap). Values are means ±SE. for representative experiments performed in triplicate. […] The effect of PSC 833 on IC50 values in KB-V1 cells is expressed as a dose modifying factor, DMF=[IC50/IC50+(IC50)PSC833)], where (IC50)PSC833 is the value obtained in the presence of the inhibitor. […] Cells are incubated with 1.74 μM NSC 634791 for 10 min at 37° C. in the presence (peak on the right) or absence (peak on the left) of 2 μM PSC 833.
Trypsinized cells are washed twice in phosphate-buffered saline (PBS). 5×10^5 cells are pre-incubated for 5 min at 37° C. in Iscove's Modified Dulbecco's Medium (Quality Biologicals, Gaithersburg, Md.) with 0.5% dimethyl sulphoxide (DMSO), with or without 2 μM PSC 833. […] Green fluorescence intensity is measured using a FacsCalibur flow cytometer equipped with a 488-nm argon laser (Becton Dickinson Biosciences, San Jose, Calif., USA). […]
To test whether our approach using the NCI-60 does, in fact, identify new substrates, an MTT assay is used to test all top-scoring compounds that were available from DTP for follow-up experiments. […] The intrinsic fluorescence of one of the compounds, NSC 634791, allows for the measurement of the effect of MDR1 activity on its export from cells.

[8] = system: ABCC2-transfected MDCKII cells; assay: MTT assay, ABCC2-transfected vs sham-transfected MDCKII cells; assay type: cell-based, dog
Protocol: Panel A is a scatter plot showing the correlation (r) of ABCC2 expression with sensitivity of the 60 cells to NSC 641281 (r=−0.46; 99.99% two-tailed bootstrap confidence interval −0.7987 to −0.0440).
Cell survival is measured by the MTT (3-(4,5-Dimethylthiazol-2-yl)-2,5-diphenyltetrazolium) Assay. Cells are seeded in 100 μl medium at a density of 5000 cells/well in 96 well plates, and serially diluted drug (with or without 2 μM PSC 833) is added the following day in 100 μl medium to give the indicated final concentration. Cells are then incubated for 72 hrs at 37° C. in 5% CO2, and the MTT assay is performed according to the manufacturer's instructions (Molecular Probes, Eugene, Oreg.).
The ABCC (MRP) subfamily is comprised of nine members that transport structurally diverse lipophilic anions and function as drug efflux pumps (Kruh and Belinsky, 2003, Oncogene 22:7537-52). ABCC2-MRP2 is a canalicular efflux pump with a role in the hepatobiliary excretion of bilirubin glucuronide as well as numerous pharmaceuticals. […] One of these compounds, NSC 641281 (shown in FIG. 4, Panel C), was available from DTP for further testing. […]

[9] = target: T5, ABCG2 (Homo sapiens, UniProt Q9UNQ0); assay: Correlation of ABCG2 expression with drug sensitivity across the NCI-60; assay type: cell-based; settings: Pearson correlation of ABCG2 expression with sensitivity of the 60 cell lines; 1429 compounds; inverse, p < 0.0001
T5 construct: endogenous in cells; host or cells: NCI-60 human cancer cell lines
T5 sequence (Q9UNQ0 whole entry): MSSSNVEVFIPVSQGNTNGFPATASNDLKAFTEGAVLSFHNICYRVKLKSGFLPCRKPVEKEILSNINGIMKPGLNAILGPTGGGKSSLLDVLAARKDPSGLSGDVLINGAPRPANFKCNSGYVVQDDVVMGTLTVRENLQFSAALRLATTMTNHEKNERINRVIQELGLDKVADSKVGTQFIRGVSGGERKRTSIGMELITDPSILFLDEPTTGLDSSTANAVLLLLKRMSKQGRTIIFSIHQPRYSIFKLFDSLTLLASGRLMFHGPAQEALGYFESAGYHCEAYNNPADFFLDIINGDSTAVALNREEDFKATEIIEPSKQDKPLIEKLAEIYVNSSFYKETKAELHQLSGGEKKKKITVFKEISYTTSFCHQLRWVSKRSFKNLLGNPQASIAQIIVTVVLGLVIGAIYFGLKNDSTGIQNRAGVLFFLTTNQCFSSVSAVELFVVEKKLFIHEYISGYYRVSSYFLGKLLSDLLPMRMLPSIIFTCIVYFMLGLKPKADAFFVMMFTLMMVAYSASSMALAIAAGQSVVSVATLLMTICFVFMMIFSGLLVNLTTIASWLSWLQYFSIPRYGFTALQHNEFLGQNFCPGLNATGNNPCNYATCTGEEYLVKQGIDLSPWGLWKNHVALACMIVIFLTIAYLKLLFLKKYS
Protocol: as §6, §7

Sequence of ABCB1 (P08183 whole entry): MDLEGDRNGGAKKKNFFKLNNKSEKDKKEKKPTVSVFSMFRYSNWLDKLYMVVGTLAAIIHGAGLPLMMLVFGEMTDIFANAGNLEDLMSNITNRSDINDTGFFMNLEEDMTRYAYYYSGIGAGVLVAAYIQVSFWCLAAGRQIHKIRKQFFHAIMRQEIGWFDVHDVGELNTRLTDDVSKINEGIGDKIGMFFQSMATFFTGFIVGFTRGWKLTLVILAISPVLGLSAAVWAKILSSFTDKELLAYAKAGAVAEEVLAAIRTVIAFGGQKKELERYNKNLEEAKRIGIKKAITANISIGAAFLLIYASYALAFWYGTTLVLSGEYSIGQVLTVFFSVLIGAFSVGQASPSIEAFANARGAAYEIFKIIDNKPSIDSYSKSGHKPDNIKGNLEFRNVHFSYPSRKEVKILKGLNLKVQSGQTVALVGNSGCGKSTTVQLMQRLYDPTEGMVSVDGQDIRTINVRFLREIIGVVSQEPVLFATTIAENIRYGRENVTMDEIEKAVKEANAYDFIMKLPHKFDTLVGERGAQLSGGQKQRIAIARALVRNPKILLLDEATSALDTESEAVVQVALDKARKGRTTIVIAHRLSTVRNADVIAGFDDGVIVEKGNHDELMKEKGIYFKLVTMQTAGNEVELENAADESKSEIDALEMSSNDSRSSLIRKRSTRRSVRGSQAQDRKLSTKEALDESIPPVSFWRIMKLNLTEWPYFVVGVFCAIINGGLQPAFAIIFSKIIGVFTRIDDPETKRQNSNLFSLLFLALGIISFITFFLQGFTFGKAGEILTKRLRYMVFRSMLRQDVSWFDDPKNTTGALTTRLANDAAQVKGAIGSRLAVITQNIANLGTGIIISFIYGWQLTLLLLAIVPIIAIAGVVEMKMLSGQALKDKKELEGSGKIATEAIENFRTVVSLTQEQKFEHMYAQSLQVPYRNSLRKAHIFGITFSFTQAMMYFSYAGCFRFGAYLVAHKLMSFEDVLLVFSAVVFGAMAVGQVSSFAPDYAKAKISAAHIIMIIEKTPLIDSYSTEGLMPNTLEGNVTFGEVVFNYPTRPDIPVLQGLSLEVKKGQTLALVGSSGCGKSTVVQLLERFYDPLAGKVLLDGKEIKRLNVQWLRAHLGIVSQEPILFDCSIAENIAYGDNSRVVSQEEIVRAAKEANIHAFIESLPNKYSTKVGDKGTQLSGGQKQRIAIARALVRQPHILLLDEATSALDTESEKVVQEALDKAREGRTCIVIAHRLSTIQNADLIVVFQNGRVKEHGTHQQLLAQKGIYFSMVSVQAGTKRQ
Sequence of MDR1 (P08183 whole entry): as above
T1 sequence (O15440 whole entry): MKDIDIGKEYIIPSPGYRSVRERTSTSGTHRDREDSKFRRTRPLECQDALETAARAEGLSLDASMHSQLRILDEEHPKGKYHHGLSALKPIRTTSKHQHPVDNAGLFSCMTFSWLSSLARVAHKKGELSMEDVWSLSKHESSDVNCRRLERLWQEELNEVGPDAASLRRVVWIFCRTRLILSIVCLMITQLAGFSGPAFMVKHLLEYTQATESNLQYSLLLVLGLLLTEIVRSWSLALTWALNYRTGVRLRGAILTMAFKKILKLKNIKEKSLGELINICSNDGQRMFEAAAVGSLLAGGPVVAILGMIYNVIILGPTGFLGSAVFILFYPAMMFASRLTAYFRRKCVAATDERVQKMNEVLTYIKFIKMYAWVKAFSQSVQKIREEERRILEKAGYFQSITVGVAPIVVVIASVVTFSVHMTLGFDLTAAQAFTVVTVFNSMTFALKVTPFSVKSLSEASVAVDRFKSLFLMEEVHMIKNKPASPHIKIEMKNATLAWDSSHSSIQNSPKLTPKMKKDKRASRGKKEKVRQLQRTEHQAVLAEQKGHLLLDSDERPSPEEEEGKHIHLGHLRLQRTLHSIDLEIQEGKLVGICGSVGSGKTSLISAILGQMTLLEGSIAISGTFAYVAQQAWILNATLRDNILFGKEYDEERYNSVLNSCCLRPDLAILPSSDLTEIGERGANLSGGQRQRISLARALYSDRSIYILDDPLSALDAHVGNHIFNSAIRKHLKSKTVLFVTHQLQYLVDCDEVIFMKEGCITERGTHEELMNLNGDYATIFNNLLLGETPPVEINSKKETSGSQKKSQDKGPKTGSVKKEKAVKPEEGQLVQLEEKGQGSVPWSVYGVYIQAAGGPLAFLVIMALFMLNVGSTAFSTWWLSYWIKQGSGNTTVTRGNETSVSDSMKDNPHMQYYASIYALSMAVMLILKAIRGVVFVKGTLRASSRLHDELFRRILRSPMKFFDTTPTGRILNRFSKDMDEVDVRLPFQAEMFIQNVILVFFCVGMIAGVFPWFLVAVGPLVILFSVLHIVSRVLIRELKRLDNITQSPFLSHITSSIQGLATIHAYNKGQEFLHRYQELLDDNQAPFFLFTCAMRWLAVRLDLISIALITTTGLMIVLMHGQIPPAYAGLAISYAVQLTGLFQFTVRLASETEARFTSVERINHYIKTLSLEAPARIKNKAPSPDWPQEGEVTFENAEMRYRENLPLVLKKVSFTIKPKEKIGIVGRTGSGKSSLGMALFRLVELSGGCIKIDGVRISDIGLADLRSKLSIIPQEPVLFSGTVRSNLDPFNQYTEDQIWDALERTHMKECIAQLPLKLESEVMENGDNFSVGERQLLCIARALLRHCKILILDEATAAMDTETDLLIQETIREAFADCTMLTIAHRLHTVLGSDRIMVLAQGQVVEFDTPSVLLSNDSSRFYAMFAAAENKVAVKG

With `COc1cc2c(cc1Oc1c(Oc3c(O)c(OC)cc4c3C(CC(C)C)N(C)CC4)c(OC)cc3c1C(CC(C)C)N(C)CC3)C(CC(C)C)N(C)CC2` (stereo not shown) [NSC 21075] the Correlation [1] was −0.3650.
Molecule `Cn1c2ccccc2c2ccc3c(c21)C(=O)C=CC3=O` [NSC 92937] has a Correlation [2] of −0.4335.
For `CCS(=O)(=O)O.CN(C)C(=O)c1cccc(COc2ccc(N3C(N)=NC(N)=NC3(C)C)cc2Cl)c1` [NSC 139105, Baker's soluble antifol, reference compound], the “Relationship between drug sensitivity and ABCB1 expression (in words)” value [3] is given as “inversely correlated” and the “Reversal of resistance by verapamil” value ([4]; verapamil, inhibitor of MDR1 transport (Gupta et al., 1988)) is given as “reversed by verapamil”.
In the case of `COc1ccc2c(c1)c1c(C)c3c[n+](C)ccc3c(C)c1n2C` [NSC 155694], the Correlation [1] is reported as −0.4494.
In the case of `COc1cc2cc3c4cc(OC)c(OC)cc4cc[n+]3c(C)c2cc1OC` [NSC 156625, Coralyne], the Correlation [3] is given as −0.4657 and the “Interaction with MDR1” value [4] is given as “interact with MDR1”.
`CC(=O)O[C@@H]1C=C(C=O)[C@](O)(C=O)[C@@]2(C)CCCC(C)(C)[C@H]12` [NSC 277293] gave a Correlation [2] of −0.5055.
In the case of `CC(=O)O[C@@H]1[C@@H](O)[C@H](O[C@H]2[C@H](OC(=O)[C@H]3CC[C@@H]4[C@H](C3)O[C@@]3(C[C@H](OC(=O)/C=C/c5ccccc5)[C@H](C)CO3)[C@]43CO3)O[C@H](C)[C@@H](O)[C@@H]2OC(C)=O)O[C@H](C)[C@H]1O` [NSC 328426, phyllanthoside], the Correlation [5] is listed as −0.2806, the Correlation ([3]; Pearson correlation of ABCB1 expression with sensitivity of the 60 cell lines, 1429 compounds, inverse, p < 0.0001) is listed as −0.7784 and the “Interaction with MDR1” value [4] is listed as “interact with MDR1”.
For `CS(=O)(=O)[O-].Cc1c2cc[n+](C)cc2c(C)c2c1[nH]c1ccccc12` [NSC 352299], the Correlation [1] was −0.4318.
For `Cc1c2cc[n+](Cc3ccc(I)cc3)cc2c(C)c2c1[nH]c1ccccc12` [NSC 604574], the Correlation [1] was −0.4123.
In the case of `C[C@]12CC[C@H]3[C@@H](CCC4=CC(=O)NCC[C@@]43C)[C@@H]1CC[C@@H]2OC(=O)COc1ccc(N(CCCl)CCCl)cc1` [NSC 620480], the Correlation [6] is reported as −0.4846.
In the case of `CCN(CC)c1ccc(/C=C2/C[N+](C)(C)C/C(=C/c3ccc(N(CC)CC)cc3)C2=O)cc1.[I-]` [NSC 634791], the Correlation [3] is reported as −0.7900, the “Accumulation of the fluorescent compound in MDR1-positive cells vs parental KB-3-1” value ([7]; 1.74 μM, 10 min at 37° C.) is reported as “contain less of the fluorescent compound than the parental KB-3-1 cell line” and the “Effect of PSC 833 on the decreased accumulation” value ([7]; 2 μM PSC 833) is reported as “completely reversible”.
For `O=C(O)COc1ccc(C(=O)/C(SS/C(C(=O)c2ccc(OCC(=O)O)c(Cl)c2Cl)=C2\C=C(c3ccc(Br)cc3)SS2)=C2/C=C(c3ccc(Br)cc3)SS2)c(Cl)c1Cl` [NSC 641281], the “Response of ABCC2-overexpressing MDCKII cells vs sham-transfected control” value [8] was “extremely resistant; also recorded: no signs of toxicity even at maximal concentrations”.
Work on `CCCCCCCCCCCCCCCC(=O)OCC1OC(OC)C2NP(=O)(N(CCCl)CCCl)OC1C2O` (stereo not shown) [NSC 642915] yielded a Correlation [6] of −0.4289.
`Cn1c2ccc(F)cc2c2ccc3c(c21)C(=O)C=CC3=O` [NSC 668844] showed a Correlation [9] of −0.4615.
In the case of `CCOC(=O)/C=C(\C(=O)OCC)n1cc(C)c(=O)n(Cc2cnnn2CCCCOC(C)=O)c1=O` [NSC 694002], the Correlation [9] is reported as −0.3627 and the “Pearson's Correlation Coeff” value [3] is reported as 0.2442.
